Structures are written as SMILES.

Regarding `CCOC(=O)Cc1ccc(Cc2nc3n(-c4c(Cl)cccc4Cl)[nH]c(C(C)C)c-3c(=O)n2)cc1` [Example 122, 1-(2,6-Dichlorophenyl)-3-isopropyl-6-(4-(carbethoxymethyl)benzyl)pyrazolo[3,4-d]pyrimidin-4-one], the melting point (as a rule, the temperature of the solid-liquid transition) lay in the range of 168 to 169 °C.

For the molecule `COc1ccc(Cc2nc3c(c(SC)nn3-c3c(C)cccc3Cl)c(=O)[nH]2)cc1` [Example 186], the melting point fell in the range of 233 to 235 °C.

`CCc1nn(-c2c(Cl)cc(C(F)(F)F)cc2Cl)c2nc(Cc3cccc(OC)c3)[nH]c(=O)c12` [Example 166] came in with a melting point of 192 to 193 °C.

`CCc1nn(-c2ccccc2Br)c2nc(Cc3cccc(O)c3)[nH]c(=O)c12` [Example 153] registered a melting point of 199 to 201 °C.

Molecule `CSc1nn(-c2c(Cl)cc(Cl)cc2Cl)c2nc(Cc3ccc(O)cc3)[nH]c(=O)c12` [Example 9] showed a melting point of 294 to 296 °C.

The molecule `CCc1nn(-c2c(Cl)cc(C(=O)NC(C)(C)C)cc2Cl)c2nc(Cc3cccc(OC)c3)[nH]c(=O)c12` [Example 238] registered a melting point of 222 to 224 °C.

`CCc1nn(-c2c(C)cccc2Cl)c2nc(Cc3ccc(OC)cc3)[nH]c(=O)c12` [Example 191] displayed a melting point of 220 to 221 °C.

Molecule `CNc1ccc(Cc2nc3c(c(C(C)C)nn3-c3c(Cl)cc(Cl)cc3Cl)c(=O)[nH]2)cc1` [Example 67] returned a melting point of 244 to 246 °C.

With `CCc1nn(-c2ccccc2Br)c2nc(Cc3cccc(OC)c3)[nH]c(=O)c12` [Example 151], the melting point was in the range of 178 to 180 °C.

Take `CCc1nn(-c2c(Cl)cc(Cl)cc2Cl)c2nc(Cc3c[nH]c4ccccc34)[nH]c(=O)c12` [Example 18]: the melting point lay in the range of 296 to 299 °C.

`COc1ccc(Cc2nc3c(c(SC)nn3-c3c(Cl)cc(Br)cc3Cl)c(=O)[nH]2)cc1` [Example 183]: the melting point lay in the range of 267 to 268 °C.

`CCc1nn(-c2c(Cl)cc(C(=O)O)cc2Cl)c2nc(Cc3ccc(OC)cc3)[nH]c(=O)c12` [Example 195] had a melting point of 292 to 294 °C.

As for `CCc1nn(-c2ccccc2F)c2nc(Cc3cccc(OC)c3)[nH]c(=O)c12` [Example 154], the melting point is 193 to 194 °C.

Regarding `COc1cc(Cc2nc3c(c(C(C)C)nn3-c3c(Cl)cc(Cl)cc3Cl)c(=O)[nH]2)ccc1N` [Example 54], the melting point was in the range of 238 to 240 °C.

Molecule `O=c1[nH]c(Cc2ccc([N+](=O)[O-])c(O)c2)nc2c1c(C1CC1)nn2-c1c(Cl)cc(Cl)cc1Cl` [Example 76] yielded a melting point of 259 to 260 °C.

With `CCc1nn(-c2c(Cl)cc(C(=O)O)cc2Cl)c2nc(Cc3cccc(O)c3)[nH]c(=O)c12` [Example 198], the melting point is 280 to 282 °C.

On to `COc1ccc(Cc2nc3c(c(SC)nn3-c3ccccc3Cl)c(=O)[nH]2)cc1` [Example 150], for which the melting point lay in the range of 227 to 228 °C.

Molecule `CSc1nn(-c2c(C)cccc2Cl)c2nc(Cc3ccc(O)cc3)[nH]c(=O)c12` [Example 190] gave a melting point of 264 to 266 °C.

As for `CCc1nn(-c2c(C)cccc2Cl)c2nc(Cc3ccc(O)cc3)[nH]c(=O)c12` [Example 184], the melting point is 255 to 256 °C.

For `CCc1nn(-c2c(Cl)cc(C(F)(F)F)cc2Cl)c2nc(Cc3ccc(OC)cc3)[nH]c(=O)c12` [Example 168], the melting point lay within 240 to 241 °C.

For the molecule `CC(C)c1nn(-c2c(Cl)cc(Cl)cc2Cl)c2nc(Cc3cccnc3)[nH]c(=O)c12` [Example 64], the melting point is 214 to 215 °C.

`O=c1[nH]c(Cc2ccc3[nH]ncc3c2)nc2c1c(C1CC1)nn2-c1c(Cl)cc(Cl)cc1Cl` [Example 72] gave a melting point of 274 to 283 °C.

With `CCc1nn(-c2c(C)cccc2Cl)c2nc(Cc3ccc(O)cc3)[nH]c(=O)c12` [Example 192], the melting point lay within 257 to 259 °C.

`CC(C)c1[nH]n(-c2c(Cl)cc(Cl)cc2Cl)c2nc(Cc3ccc(N(C(=O)OC(C)(C)C)C(=O)[C@@H]4CCCN4)cc3)nc(=O)c1-2` [Example 113, (S)-1-(2,4,6-Trichlorophenyl)-3-isopropyl-6-(4-(N-t-butoxycarbonylprolinamido)benzyl)pyrazolo[3,4-d]pyrimidin-4-one]: the melting point is 225 to 226 °C.

`CC(C)c1nn(-c2c(Cl)cc(Cl)cc2Cl)c2nc(Cc3ccncc3)[nH]c(=O)c12` [Example 61]: the melting point fell in the range of 273 to 275 °C.

In turn, `CCc1nn(-c2c(Cl)cc(Cl)cc2Cl)c2nc(Cc3cc(OC)c(OC)c(OC)c3)[nH]c(=O)c12` [Example 24] registered a melting point of 224 to 226 °C.

Take `CCc1nn(-c2c(Cl)cc(C(=O)NC)cc2Cl)c2nc(Cc3ccc(OC)cc3)[nH]c(=O)c12` [Example 201]: the melting point was 278 to 280 °C.
